Measured values: patent US20030139352A1, “Inhibitors of ABC drug transporters in cancer cells” (priority 2001, published 2003)
Like-named read-outs stand apart in the source and are kept apart here.

Key:
[1] = target: human PGP membranes (PGP-associated ATPase) (Homo sapiens, UniProt P08183); conditions: for ATPase Activity: orthovanadate-sensitive; for effect on PGP-associated ATPase activity (in words): semi-quantitative assay
Description: The DMSO concentration (1.0%) was constant for all conditions within the experiment.
The test substances were incubated in the PGP membranes and supplemented with MgATP, with and without sodium orthovanadate present. Orthovanadate inhibits PGP by trapping MgADP in the nucleotide binding site. Thus, the ATPase activity measured in the presence of orthovanadate represents non-PGP ATPase activity and was subtracted from the activity generated without orthovanadate to yield ATPase activity.
(§1) ATPase assays were conducted in 96-well microtiter plates. A 0.06 mL reaction mixture containing 40 μg PGP membranes, test substance, and 4 mM MgATP, in buffer containing 50 mM Tris-MES, 2 mM EGTA, 50 mM KCl, 2 mM dithiothreitol, and 5 mM sodium azide, plus organic solvent was incubated at 37° C. for 20 minutes. […] Identical reaction mixtures containing 100 μM sodium orthovanadate were assayed in parallel. The reactions were stopped by the addition of 30 μl of 10% SDS+Antifoam A. The incubations were followed with addition of 200 μl of 35 mM Ammonium Molybdate in 15 mM Zinc Acetate: 10% Ascorbic Acid (1:4) and incubated for an additional 20 minutes at 37° C. Additionally, 0.06 mL aliquots of potassium phosphate standards prepared in the buffer described above, were incubated in the plates containing the test and control substances, with SDS and detection reagent added. The liberation of inorganic phosphate was detected by its absorbance at 800 nm and quantitated by comparing the absorbance to a phosphate standard curve. The concentration dependence of the PGP was analyzed for evidence of saturation of PGP-associated ATPase activity, and apparent kinetic parameters were calculated by non-linear regression.
as §1, with “plates.” for “plates. A 0.06 mL reaction mixture containing 40 μg PGP membranes, test substance, and 4 mM MgATP, in buffer containing 50 mM Tris-MES, 2 mM EGTA, 50 mM KCl, 2 mM dithiothreitol, and 5 mM sodium azide, plus organic solvent was incubated at 37° C. for 20 minutes.”, “activity.” for “activity, and apparent kinetic parameters were calculated by non-linear regression.”
as §1, with “plates.” for “plates. A 0.06 mL reaction mixture containing 40 μg PGP membranes, test substance, and 4 mM MgATP, in buffer containing 50 mM Tris-MES, 2 mM EGTA, 50 mM KCl, 2 mM dithiothreitol, and 5 mM sodium azide, plus organic solvent was incubated at 37° C. for 20 minutes.”

[2] = target: human PGP (Homo sapiens, UniProt P08183); assay: Inhibition of human PGP-mediated [3H]-digoxin transport in 15B-J (LLC-PK1 expressing human PGP) monolayers; conditions: for inhibition of PGP-mediated digoxin transport (in words): 5 μM [3H]-digoxin, 15B-J monolayers; for Activity 2: high capacity, low affinity binding site; for Activity 1: low capacity, high affinity binding site
[3] = target: human PGP (P-glycoprotein) (Homo sapiens, UniProt P08183); assay: as above; conditions: human; for inhibition at 90 min, 0.0001 μM: 0.0001 μM test substance; for inhibition at 90 min, 0.0003 μM: 0.0003 μM test substance; for inhibition at 90 min, 0.001 μM: 0.001 μM test substance; for inhibition at 90 min, 0.003 μM: 0.003 μM test substance; for inhibition at 90 min, 0.01 μM: 0.01 μM test substance; for inhibition at 90 min, 0.03 μM: 0.03 μM test substance; for inhibition at 90 min, 0.1 μM: 0.1 μM test substance; for inhibition at 90 min, 0.3 μM: 0.3 μM test substance; for inhibition at 90 min, 1 μM: 1.0 μM test substance; for inhibition at 90 min, 3 μM: 3.0 μM test substance; for inhibition at 90 min, 10 μM: 10 μM test substance; for inhibition at 90 min, 30 μM: 30 μM test substance; for inhibition at 90 min, 100 μM: 100 μM test substance
[4] = test system: CLA (control) Monolayer, LLC-PK1 cells; conditions: 10 μM in donor
[5] = pH 7.2, % Inhibition of Digoxin Transport, 5 μM [3H]-digoxin, 90 min
[6] = pH 7.2, Ketoconazole Normalized % Inhibition of Digoxin Transport, normalized to 25 μM ketoconazole

Chain of human PGP membranes (PGP-associated ATPase) (P08183 whole entry): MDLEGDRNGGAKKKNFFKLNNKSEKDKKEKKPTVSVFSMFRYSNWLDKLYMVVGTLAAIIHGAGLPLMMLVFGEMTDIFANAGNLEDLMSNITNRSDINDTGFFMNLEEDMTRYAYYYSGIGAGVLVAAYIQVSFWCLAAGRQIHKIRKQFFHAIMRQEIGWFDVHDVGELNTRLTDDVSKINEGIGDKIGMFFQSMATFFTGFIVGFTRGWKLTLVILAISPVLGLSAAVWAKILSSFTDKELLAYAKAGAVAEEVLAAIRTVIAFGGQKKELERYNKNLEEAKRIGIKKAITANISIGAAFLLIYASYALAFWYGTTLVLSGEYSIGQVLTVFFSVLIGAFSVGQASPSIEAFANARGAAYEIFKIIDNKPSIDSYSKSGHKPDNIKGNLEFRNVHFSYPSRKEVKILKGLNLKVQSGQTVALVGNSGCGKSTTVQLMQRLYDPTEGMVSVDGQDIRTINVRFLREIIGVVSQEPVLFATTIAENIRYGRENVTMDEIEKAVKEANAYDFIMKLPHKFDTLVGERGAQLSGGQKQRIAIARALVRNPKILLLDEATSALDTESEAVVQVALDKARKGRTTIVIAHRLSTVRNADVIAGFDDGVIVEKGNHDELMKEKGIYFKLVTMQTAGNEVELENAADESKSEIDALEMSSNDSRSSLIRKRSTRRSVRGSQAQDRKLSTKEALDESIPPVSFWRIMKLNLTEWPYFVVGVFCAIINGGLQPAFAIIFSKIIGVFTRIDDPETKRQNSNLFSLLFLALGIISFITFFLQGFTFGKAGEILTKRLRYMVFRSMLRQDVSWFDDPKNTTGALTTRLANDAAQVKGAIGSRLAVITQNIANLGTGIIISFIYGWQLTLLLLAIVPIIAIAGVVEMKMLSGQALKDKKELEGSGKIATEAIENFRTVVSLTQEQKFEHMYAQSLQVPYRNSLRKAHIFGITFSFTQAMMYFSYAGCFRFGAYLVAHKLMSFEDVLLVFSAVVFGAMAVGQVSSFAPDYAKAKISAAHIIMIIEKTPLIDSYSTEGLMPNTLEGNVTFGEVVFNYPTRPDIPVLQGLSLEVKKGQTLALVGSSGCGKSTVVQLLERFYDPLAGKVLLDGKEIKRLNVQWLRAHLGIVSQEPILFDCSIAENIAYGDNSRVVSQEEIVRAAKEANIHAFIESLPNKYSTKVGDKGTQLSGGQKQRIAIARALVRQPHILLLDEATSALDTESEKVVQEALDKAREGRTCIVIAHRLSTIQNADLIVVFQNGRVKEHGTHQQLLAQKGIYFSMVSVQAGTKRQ
Chain of human PGP (P08183 whole entry): as above
Chain of human PGP (P-glycoprotein) (P08183 whole entry): as above

| SMILES | ATPase Activity ([1]; 0.01 μM test substance) | ATPase Activity ([1]; 0.03 μM test substance) | ATPase Activity ([1]; 0.1 μM test substance) | ATPase Activity ([1]; 0.3 μM test substance) | ATPase Activity ([1]; 1.0 μM test substance) | ATPase Activity ([1]; 3.0 μM test substance) | ATPase Activity ([1]; 10 μM test substance) | ATPase Activity ([1]; 30 μM test substance) | ATPase Activity ([1]; 100 μM test substance) | effect on PGP-associated ATPase activity (in words) [1] | inhibition of PGP-mediated digoxin transport (in words) [2] | Activity 2 [2] | Activity 1 [2] | inhibition at 90 min, 0.0001 μM [3, 6] | inhibition at 90 min, 0.0003 μM [3, 6] | inhibition at 90 min, 0.001 μM [3, 6] | inhibition at 90 min, 0.01 μM [3, 6] | inhibition at 90 min, 0.03 μM [3, 6] | inhibition at 90 min, 1 μM [3, 6] | inhibition at 90 min, 3 μM [3, 6] | also measured |
| --- | --- | --- | --- | --- | --- | --- | --- | --- | --- | --- | --- | --- | --- | --- | --- | --- | --- | --- | --- | --- | --- |
| C=C1CC[C@@]2(O)[C@H]3Cc4ccc(O)c5c4[C@@]2(CCN3CC2CC2)[C@H]1O5 [Nalmefene, nalmefene] | 1.3 nmol/mg/min | 1.2 nmol/mg/min | 1.1 nmol/mg/min | 1.9 nmol/mg/min | -1.6 nmol/mg/min | 0.2 nmol/mg/min | -0.5 nmol/mg/min | 2.3 nmol/mg/min | 3.3 nmol/mg/min | not to limit the ATPase activity | increasingly inhibited in response to increasing concentration | 100 µM | 0.3 nM | 7.5% | 10% | 4% | 7.4% | -10% | -3.2% | 14% | ATPase Activity ([1]; 0.003 μM test substance): 2.4 nmol/mg/min; inhibition at 90 min, 0.0001 μM [3, 5]: 5.2%; inhibition at 90 min, 0.0003 μM [3, 5]: 7.2%; inhibition at 90 min, 0.001 μM [3, 5]: 2.8%; inhibition at 90 min, 0.003 μM [3, 5]: 5.1%; inhibition at 90 min, 0.01 μM [3, 5]: 3.9%; inhibition at 90 min, 0.03 μM [3, 5]: -7.2%; inhibition at 90 min, 0.1 μM [3, 5]: -0.3%; inhibition at 90 min, 0.3 μM [3, 5]: -5.6%; inhibition at 90 min, 1 μM [3, 5]: -2.6%; inhibition at 90 min, 3 μM [3, 5]: 10%; inhibition at 90 min, 10 μM [3, 5]: 13%; inhibition at 90 min, 30 μM [3, 5]: 35%; inhibition at 90 min, 100 μM [3, 5]: 42%; inhibition at 90 min, 0.003 μM [3, 6]: 7.4%; inhibition at 90 min, 0.3 μM [3, 6]: -10%; inhibition at 90 min, 10 μM [3, 6]: 19%; inhibition at 90 min, 30 μM [3, 6]: 51%; inhibition at 90 min, 100 μM [3, 6]: 61% |
| Cc1ccc(NC(=O)c2ccc(CN3CCNCC3)cc2)cc1Nc1nccc(-c2cccnc2)n1 [Gleevec metabolite] |  |  |  |  |  |  |  |  |  |  |  |  |  |  |  |  |  |  |  |  | pmoles in Receiver ([4]; A→B, 15 min): 8.4 pmol; pmoles in Receiver ([4]; A→B, 30 min): 2.76 pmol; pmoles in Receiver ([4]; A→B, 60 min): 1.6 pmol; pmoles in Receiver ([4]; A→B, 90 min): 2.0 pmol; pmoles in Receiver ([4]; A→B, 120 min): 1.7 pmol; pmoles in Receiver ([4]; B→A, 15 min): 1.0 pmol; pmoles in Receiver ([4]; B→A, 30 min): 0.86 pmol; pmoles in Receiver ([4]; B→A, 60 min): 0.7 pmol; pmoles in Receiver ([4]; B→A, 90 min): 0.9 pmol; pmoles in Receiver ([4]; B→A, 120 min): 1.9 pmol |
| C=CCN1CC[C@]23c4c5ccc(O)c4O[C@H]2C(=O)CC[C@@]3(O)[C@H]1C5 [Naloxone, naloxone] | -0.8 nmol/mg/min | 0.7 nmol/mg/min | 3.6 nmol/mg/min | -0.6 nmol/mg/min | 0.4 nmol/mg/min | 1.7 nmol/mg/min | 2 nmol/mg/min | 1.9 nmol/mg/min | 1.8 nmol/mg/min | not to limit the ATPase activity | the inhibition was not concentration-dependent | 30 µM | 1.0 nM | 6.2% | 8.4% | 10% | -4.5% | 5.7% | 7.8% | -11% | ATPase Activity ([1]; 0.001 μM test substance): -3.8 nmol/mg/min; inhibition at 90 min, 0.1 μM [3, 6]: -2.7%; inhibition at 90 min, 10 μM [3, 6]: 0.4%; inhibition at 90 min, 30 μM [3, 6]: 41%; inhibition at 90 min, 100 μM [3, 6]: 37% |
